The text below walks through data of BindingDB's records for doi:10.1016/j.bmcl.2010.08.063 (Merck Research Laboratories, 2010).

The structures appear in SMILES notation.

By EC50 is commonly meant the concentration that produces a half-maximal response.

The test is described as follows: Positive modulation of GluR1.
As for `CC(C)NCc1cn(CC(=O)Nc2sc3c(c2C(N)=O)CCCC3)nc1C(F)(F)F`, the EC50 was determined as 3160 nM. For `CC(C)NCc1cn(CC(=O)Nc2sc3c(c2C(N)=O)CCCC3)nc1C(C)(C)C`, the EC50 was determined as 1580 nM.

In the case of `CCN(CC)Cc1cn(CCC(=O)Nc2sc3c(c2C(N)=O)CCCC3)nc1C(F)(F)F`, the EC50 was determined as 2000 nM. Next, `NC(=O)c1c(NC(=O)Cn2cc(CNC3CC3)c(C(F)(F)F)n2)sc2c1CCCC2`: 631 nM; `CN(C)Cc1cn(CC(=O)Nc2sc3c(c2C(N)=O)CCCC3)nc1C(F)(F)F`: 501 nM. The molecule `NC(=O)c1c(NC(=O)Cn2cc(CN3CCC3)c(C(F)(F)F)n2)sc2c1CCCC2` came in with an EC50 of 1000 nM. `CCNCc1cn(CC(=O)Nc2sc3c(c2C(N)=O)CCCC3)nc1C(F)(F)F` displayed an EC50 of 794 nM. For the molecule `O=C(Cn1nc(C(F)(F)F)c2c1CCCC2)Nc1sc2c(c1C(=O)N[C@@H]1CCNC1)CCCC2`, the midpoint of the response, the EC50, lay at 251 nM. On to `CCNCc1cn(CCC(=O)Nc2sc3c(c2C(N)=O)CCCC3)nc1C(F)(F)F`, for which it took 2510 nM to reach a half-maximal effect (EC50). `COCCNCc1cn(CC(=O)Nc2sc3c(c2C(N)=O)CCCC3)nc1C(F)(F)F`: the EC50 turned out to be 1580 nM. Turning to `NCc1cn(CC(=O)Nc2sc3c(c2C(N)=O)CCCC3)nc1C(F)(F)F`, it took 794 nM to reach a half-maximal effect (EC50).

The molecule `NC(=O)c1c(NC(=O)Cn2nc(C(F)(F)F)c3c2CCNC3)sc2c1CCCC2` showed an EC50 of 1000 nM.

For the molecule `CNCc1cn(CC(=O)Nc2sc3c(c2C(=O)NC)CCCC3)nc1C(F)(F)F`, the EC50 was 1580 nM.

The molecule `CNCc1cn(CCC(=O)Nc2sc3c(c2C(N)=O)CCCC3)nc1C(F)(F)F` yielded an EC50 of 1580 nM. `CNCc1cn(CC(=O)Nc2sc3c(c2C(N)=O)CCCC3)nc1C(C)(C)C` displayed an EC50 of 316 nM. With `O=C(Cn1nc(C(F)(F)F)c2c1CCCC2)Nc1sc2c(c1CO)CCCC2`, the EC50 was determined as 251 nM.

Take `CCN(CC)Cc1cn(CC(=O)Nc2sc3c(c2C(N)=O)CCCC3)nc1C(F)(F)F`: a half-maximal effect (EC50) was put at 631 nM. Next, `CCNCc1cn(CC(=O)Nc2sc3c(c2C(N)=O)CCCC3)nc1C(C)(C)C`: 794 nM.

Molecule `CNCc1cn(CC(=O)Nc2sc3c(c2C(N)=O)CCCC3)nc1C(F)(F)F` displayed an EC50 of 126 nM. Turning to `CN(C)Cc1cn(CC(=O)Nc2sc3c(c2C(N)=O)CCCC3)nc1C(C)(C)C`, a half-maximal effect (EC50) was put at 316 nM.

In turn, `CC(C)(C)c1nn(CC(=O)Nc2sc3c(c2C(N)=O)CCCC3)cc1CNC1CC1` registered an EC50 of 1580 nM.
